From article PMC8713283 (Journal of Medicinal Chemistry, 2021)
Like-named read-outs stand apart in the source and are kept apart here.

Tests used:
[1] = human
[2] = Log D(dec/w) shake flask partition coefficient; format: physicochemical; settings: 1,9-decadiene and PBS pH 7.4 shake flask partition coefficient; for logD hydrocarbon water: 1,9-decadiene/PBS
[3] = LPEester – LPEamide by amide–ester matched pairs
P-gp (human MDR1) = assay: in vitro; settings: dog; for Papp A→B at 5 µM / Papp B→A at 5 µM: MDCK-MDR1; for efflux ratio at 5 µM: MDCK-MDR1, Efflux ratio B-A/A-B, MDCK-MDR1, 5 µM, N = 2
[4] = target: T1, VHL (VCB, VHL:ElonginC:ElonginB) (Homo sapiens, UniProt P40337); assay: FP competition binding, binary binding to VHL
T1 construct: His6 (N, cleaved yes); made in house; host or cells: Escherichia coli

[5] = compound alone to VHL, FP competition with FAM-HIF-1α peptide, mean ± SEM, read-out: Kd binary
Throughout, for Plasma stability: time not given here.

| SMILES | Plasma stability [1] | logD hydrocarbon water [2] | ΔLPE [3] | Papp A→B at 5 µM (P-gp (human MDR1)) | Papp B→A at 5 µM (P-gp (human MDR1)) | efflux ratio at 5 µM (P-gp (human MDR1)) | Kd [4, 5] | LogD (dec/w) [2] | Kd [4] |
| --- | --- | --- | --- | --- | --- | --- | --- | --- | --- |
| COCC(=O)OCCCCCC(=O)N[C@H](C(=O)N1C[C@H](O)C[C@H]1C(=O)NCc1ccc(-c2scnc2C)cc1)C(C)(C)C [Compound 8, 6-(((S)-1-((2S,4R)-4-Hydroxy-2-((4-(4-methylthiazol-5-yl)benzyl)carbamoyl)pyrrolidin-1-yl)-3,3-dimethyl-1-oxobutan-2-yl)amino)-6-oxohexyl 2-methoxyacetate] | 1 ± 0.4% | -1.7 | -0.2 | 0.4 ×10⁻⁶ cm/s | 11 ×10⁻⁶ cm/s | 26 |  |  |  |
| Cc1ncsc1-c1ccc(CNC(=O)[C@@H]2C[C@@H](O)CN2C(=O)[C@@H](NC(=O)CCCCCOC(=O)Cc2ccccc2)C(C)(C)C)cc1 [Compound 10, 6-(((S)-1-((2S,4R)-4-Hydroxy-2-((4-(4-methylthiazol-5-yl)benzyl)carbamoyl)pyrrolidin-1-yl)-3,3-dimethyl-1-oxobutan-2-yl)amino)-6-oxohexyl 2-phenylacetate] |  |  |  |  |  |  | 136 nM |  |  |
| Cc1ncsc1-c1ccc(CNC(=O)[C@@H]2C[C@@H](O)CN2C(=O)[C@@H](NC(=O)CCCCCNC(=O)C2CCCCC2)C(C)(C)C)cc1 [Compound 4, (2S,4R)-1-((S)-2-(6-(Cyclohexanecarboxamido)hexanamido)-3,3-dimethylbutanoyl)-4-hydroxy-N-(4-(4-methylthiazol-5-yl)benzyl)pyrrolidine-2-carboxamide] | 168 ± 20% | -1.4 |  | 0.3 ×10⁻⁶ cm/s | 10.3 ×10⁻⁶ cm/s | 33 |  |  |  |
| Cc1ncsc1-c1ccc(CNC(=O)[C@@H]2C[C@@H](O)CN2C(=O)[C@@H](NC(=O)CCCCCOC(=O)C2CCCCC2)C(C)(C)C)cc1 [Compound 11, 6-(((S)-1-((2S,4R)-4-Hydroxy-2-((4-(4-methylthiazol-5-yl)benzyl)carbamoyl)pyrrolidin-1-yl)-3,3-dimethyl-1-oxobutan-2-yl)amino)-6-oxohexyl cyclohexanecarboxylate] | 14 ± 1% | 1.1 | 1.8 | 0.3 ×10⁻⁶ cm/s | 35.6 ×10⁻⁶ cm/s | 142 |  |  |  |
| C[C@H]1O[C@@H](O[C@H]2[C@@H](O)C[C@H](O[C@H]3[C@@H](O)C[C@H](O[C@H]4CC[C@@]5(C)[C@H](CC[C@@H]6[C@@H]5C[C@@H](O)[C@]5(C)[C@@H](C7=CC(=O)OC7)CC[C@]65O)C4)O[C@@H]3C)O[C@@H]2C)C[C@H](O)[C@@H]1O [Digoxin, reference compound] |  |  |  | 0.8 ×10⁻⁶ cm/s | 21.5 ×10⁻⁶ cm/s | 26.3 |  |  |  |
| CCCCOc1ccc(-c2ccc(C(=O)OCCCCCC(=O)N[C@H](C(=O)N3C[C@H](O)C[C@H]3C(=O)NCc3ccc(-c4scnc4C)cc3)C(C)(C)C)cc2)cc1 [Compound 14, 6-(((S)-1-((2S,4R)-4-Hydroxy-2-((4-(4-methylthiazol-5-yl)benzyl)carbamoyl)pyrrolidin-1-yl)-3,3-dimethyl-1-oxobutan-2-yl)amino)-6-oxohexyl 4′-butoxy-[1,1′-biphenyl]-4-carboxylate] | 119 ± 28% |  |  |  |  |  |  | BLD^h |  |
| Cc1ncsc1-c1ccc(CNC(=O)[C@@H]2C[C@@H](O)CN2C(=O)[C@@H](NC(=O)CCCCCNC(=O)CC23CC4CC(CC(C4)C2)C3)C(C)(C)C)cc1 [Compound 5, (2S,4R)-1-((S)-2-(6-(2-(Adamantan-1-yl)acetamido)hexanamido)-3,3-dimethylbutanoyl)-4-hydroxy-N-(4-(4-methylthiazol-5-yl)benzyl)pyrrolidine-2-carboxamide] | 74 ± 8% | -0.2 |  | 0.2 ×10⁻⁶ cm/s | 23.7 ×10⁻⁶ cm/s | 158 |  |  |  |
| Cc1ncsc1-c1ccc(CNC(=O)[C@@H]2C[C@@H](O)CN2C(=O)[C@@H](NC(=O)CCCCCNC(=O)CC(c2ccccc2)c2ccccc2)C(C)(C)C)cc1 [Compound 6, (2S,4R)-1-((S)-2-(6-(3,3-Diphenylpropanamido)hexanamido)-3,3-dimethylbutanoyl)-4-hydroxy-N-(4-(4-methylthiazol-5-yl)benzyl)pyrrolidine-2-carboxamide] | 149 ± 9% | -0.3 |  | 0.1 ×10⁻⁶ cm/s | 18.5 ×10⁻⁶ cm/s | 133 |  |  |  |
| Cc1ncsc1-c1ccc(CNC(=O)[C@@H]2C[C@@H](O)CN2C(=O)[C@@H](NC(=O)CCOCCOCCOCCNC(=O)Cc2ccccc2)C(C)(C)C)cc1 [Compound 17, (2S,4R)-1-((S)-17-(tert-Butyl)-2,15-dioxo-1-phenyl-6,9,12-trioxa-3,16-diazaoctadecan-18-oyl)-4-hydroxy-N-(4-(4-methylthiazol-5-yl)benzyl)pyrrolidine-2-carboxamide] | 133 ± 18% | -1.9 |  |  | 2 ×10⁻⁶ cm/s |  | 138 nM |  |  |
| CCCC(=O)NCCCCCC(=O)N[C@H](C(=O)N1C[C@H](O)C[C@H]1C(=O)NCc1ccc(-c2scnc2C)cc1)C(C)(C)C [Compound 2, (2S,4R)-1-((S)-2-(6-Butyramidohexanamido)-3,3-dimethylbutanoyl)-4-hydroxy-N-(4-(4-methylthiazol-5-yl)benzyl)pyrrolidine-2-carboxamide] | 83 ± 5% | -2.2 |  | 0.4 ×10⁻⁶ cm/s | 2.9 ×10⁻⁶ cm/s | 7 |  |  |  |
| Cc1ncsc1-c1ccc(CNC(=O)[C@@H]2C[C@@H](O)CN2C(=O)[C@@H](NC(=O)CCCCCNC(=O)Cc2ccccc2)C(C)(C)C)cc1 [Compound 3, (2S,4R)-1-((S)-3,3-Dimethyl-2-(6-(2-phenylacetamido)hexanamido)butanoyl)-4-hydroxy-N-(4-(4-methylthiazol-5-yl)benzyl)pyrrolidine-2-carboxamide] | 130 ± 3% | -1.5 |  | 0.7 ×10⁻⁶ cm/s | 8.4 ×10⁻⁶ cm/s | 12 | 119 nM |  |  |
| COCC(=O)NCCCCCC(=O)N[C@H](C(=O)N1C[C@H](O)C[C@H]1C(=O)NCc1ccc(-c2scnc2C)cc1)C(C)(C)C [Compound 1, (2S,4R)-4-Hydroxy-1-((S)-2-(6-(2-methoxyacetamido)hexanamido)-3,3-dimethylbutanoyl)-N-(4-(4-methylthiazol-5-yl)benzyl)pyrrolidine-2-carboxamide] | 126 ± 4% | -2.2 |  | 0.5 ×10⁻⁶ cm/s | 1.7 ×10⁻⁶ cm/s | 3 |  |  |  |
| Cc1ncsc1-c1ccc(CNC(=O)[C@@H]2C[C@@H](O)CN2C(=O)[C@@H](NC(=O)CCOCCNC(=O)Cc2ccccc2)C(C)(C)C)cc1 [Compound 15, (2S,4R)-1-((S)-3,3-Dimethyl-2-(3-(2-(2-phenylacetamido)ethoxy)propanamido)butanoyl)-4-hydroxy-N-(4-(4-methylthiazol-5-yl)benzyl)pyrrolidine-2-carboxamide] | 103 ± 14% | -1.4 |  | 0.4 ×10⁻⁶ cm/s | 4.6 ×10⁻⁶ cm/s | 13 | 171 ± 14 nM |  |  |
| Cc1ncsc1-c1ccc(CNC(=O)[C@@H]2C[C@@H](O)CN2C(=O)[C@@H](NC(=O)CCOCCOCCOCCOC(=O)Cc2ccccc2)C(C)(C)C)cc1 [Compound 20, (S)-14-((2S,4R)-4-Hydroxy-2-((4-(4-methylthiazol-5-yl)benzyl)carbamoyl)pyrrolidine-1-carbonyl)-15,15-dimethyl-12-oxo-3,6,9-trioxa-13-azahexadecyl 2-phenylacetate] |  |  |  |  |  |  | 144 nM |  |  |
| CCCCOc1ccc(-c2ccc(C(=O)NCCCCCC(=O)N[C@H](C(=O)N3C[C@H](O)C[C@H]3C(=O)NCc3ccc(-c4scnc4C)cc3)C(C)(C)C)cc2)cc1 [Compound 7, (2S,4R)-1-((S)-2-(6-(4′-Butoxy-[1,1′-biphenyl]-4-carboxamido)hexanamido)-3,3-dimethylbutanoyl)-4-hydroxy-N-(4-(4-methylthiazol-5-yl)benzyl)pyrrolidine-2-carboxamide] | 83 ± 14% | 1 |  |  | 0.2 ×10⁻⁶ cm/s |  |  |  |  |
| CC(C)NCC(O)COc1cccc2ccccc12 (stereo not shown) [Propranolol, reference compound] |  |  |  | 49.1 ×10⁻⁶ cm/s | 41.6 ×10⁻⁶ cm/s | 0.8 |  |  |  |
| Cc1ncsc1-c1ccc(CNC(=O)[C@@H]2C[C@@H](O)CN2C(=O)[C@@H](NC(=O)CCOCCOCCNC(=O)Cc2ccccc2)C(C)(C)C)cc1 [Compound 16, (2S,4R)-1-((S)-14-(tert-Butyl)-2,12-dioxo-1-phenyl-6,9-dioxa-3,13-diazapentadecan-15-oyl)-4-hydroxy-N-(4-(4-methylthiazol-5-yl)benzyl)pyrrolidine-2-carboxamide] | 151 ± 30% | -2.3 |  |  | 3.3 ×10⁻⁶ cm/s |  | 172 ± 17 nM |  |  |
| Cc1ncsc1-c1ccc(CNC(=O)[C@@H]2C[C@@H](O)CN2C(=O)[C@@H](NC(=O)CCOCCOC(=O)Cc2ccccc2)C(C)(C)C)cc1 [Compound 18, 2-(3-(((S)-1-((2S,4R)-4-Hydroxy-2-((4-(4-methylthiazol-5-yl)benzyl)carbamoyl)pyrrolidin-1-yl)-3,3-dimethyl-1-oxobutan-2-yl)amino)-3-oxopropoxy)ethyl 2-phenylacetate] |  |  |  |  |  |  | ~200 nM |  | 232 ± 47 nM |
| Cc1ncsc1-c1ccc(CNC(=O)[C@@H]2C[C@@H](O)CN2C(=O)[C@@H](NC(=O)CCOCCOCCOC(=O)Cc2ccccc2)C(C)(C)C)cc1 [Compound 19, 2-(2-(3-(((S)-1-((2S,4R)-4-Hydroxy-2-((4-(4-methylthiazol-5-yl)benzyl)carbamoyl)pyrrolidin-1-yl)-3,3-dimethyl-1-oxobutan-2-yl)amino)-3-oxopropoxy)ethoxy)ethyl 2-phenylacetate] |  |  |  |  |  |  | 197 ± 27 nM |  |  |
